pIC50: −log10 of the molar value.
Key:
U2932 = experiment: Antiproliferative activity against human U2932 cells assessed as inhibition of cell viability measured after 72 hrs by MTT assay; type: functional, cell-based; conditions: U2932, 72 h
DOHH-2 = experiment: Antiproliferative activity against human DOHH-2 cells assessed as inhibition of cell viability measured after 72 hrs by MTT assay; type: functional, cell-based; conditions: DOHH-2, 72 h
Jurkat = experiment: Antiproliferative activity against human Jurkat cells assessed as inhibition of cell viability measured after 72 hrs by MTT assay; type: functional, cell-based
[1] = Antiproliferative activity against human NK-YS cells assessed as inhibition of cell viability measured after 72 hrs by MTT assay; type: functional, cell-based
TMD8 [2] = experiment: Antiproliferative activity against human TMD8 cells assessed as inhibition of cell viability measured after 72 hrs by MTT assay; type: functional, cell-based; conditions: TMD8, 72 h
[3] = Upregulation of FAS mRNA level in human DOHH-2 cells assessed as fold change at 300 nM measured after 6 days by PCR analysis; type: functional; conditions: time 6 day
[4] = Upregulation of BAX mRNA level in human DOHH-2 cells assessed as fold change at 300 nM measured after 6 days by PCR analysis; type: functional; conditions: time 6 day
TMD8 [5] = experiment: Antitumor activity against human TMD8 cells xenografted in mouse model assessed as tumor inhibition rate at 2.5 mg/kg, ip QD relative to control; type: functional; parameters: scale not given: the % may be the effect or the level left
[6] = Antitumor activity against human TMD8 cells harbouring […] xenografted in mouse model assessed as tumor inhibition rate at 2.5 mg/kg, ip QD relative to control; type: functional; parameters: scale not given: the % may be the effect or the level left
[7] = Antitumor activity against human TMD8 cells harbouring TP53 mutant xenografted in mouse model assessed as tumor inhibition rate at 2.5 mg/kg, ip QD relative to control; type: functional; parameters: scale not given: the % may be the effect or the level left
[8] = Antitumor activity against human TMD8 cells harbouring […] xenografted in mouse model assessed as body weight change at 2.5 mg/kg, ip QD relative to control; type: functional
[9] = Antitumor activity against human TMD8 cells harbouring TP53 mutant xenografted in mouse model assessed as body weight change at 2.5 mg/kg, ip QD relative to control; type: functional

`Nc1ncn([C@@H]2O[C@H](CO)[C@@H](O)[C@H]2O)c(=O)n1` [AZACITIDINE] gave a pIC50 (U2932) of 5.74, a pIC50 (DOHH-2) of 6.47 and a pIC50 (Jurkat) of 5.97. For the same molecule, the pIC50 [1] was 5.48, the pIC50 (TMD8 [2]) was 5.55 and the “fold change (FC)” value [3] was 1.8. The “fold change (FC)” value [4] was 1.86, the Activity (TMD8 [5]) was 53.02% and the Activity [6] was 52.1%. The Activity [7] was 43.6%, the Activity [8] was -5.9% and the Activity [9] was -5.9%.

Reference: ChEMBL document CHEMBL6153174, “Design and Synthesis of Novel Deazapurine DNMT 1 Inhibitors with In Vivo Efficacy in DLBCL” (J Med Chem, 2025)
